# Test results reported in US4956384A, “1,4:3,6-dianhydrosorbitol 2-mononitrate and 5-mononitrate esters and pharmaceutical compositions therefrom” (Chiesi Farmaceutici S.p.A., priority 1987, dated 1990).
# Where two headings read alike, the source gives them in different places.
# Legend:
# [1] = octanol/water partition coefficient; format: physicochemical; conditions: for logP: octanol/water, read-out: Partition coeff. (octanol/H2O) (converted)
# [2] = system: helicoidal strips of rabbit aorta; experiment: In vitro vasodilating activity: inhibition of K+-induced contraction of aorta strips; format: cell-based, male albino rabbits (New Zealand strain); conditions: for IC50: Oryctolagus cuniculus, read-out: ED50 (concentration causing a 50% inhibition of contraction); for Potency ratio, In vitro: Table III; for times more active than the starting mononitrate: in vitro, II vs IS-5N, X vs IS-2N
# Experimental: Aorta strips from male albino rabbits (New Zealand strain), prepared according to the method by Furchgott and Bhadrakom--J. Pharm. Exp. Ther. 108, 129 (1953), were contracted with a solution enriched in K^+ (100 mM). When the contraction was stable, the test compounds were added, according to the method of cumulative dosages.
# The responses were isometrically recorded and expressed as contraction percentage inhibition. The concentration causing 50% inhibition (ED50) was calculated on the basis of the equation of the linear tract of the dose-response curves. The obtained results expressed as ED50 values are reported in tables I and II (which respectively relate to the compounds substituted at the 2-and and 5-positions), together with the values of the octanol/water partition coefficient. The potency ratio for each compound, in comparison with the starting mononitrate, IS-2-N and IS-5-N, is reported in the same tables.
# [3] = Hypotensive activity in anesthetized rats (mean arterious pressure, i.v. bolus); format: in vivo, male albino rats (D strain, Charles River); conditions: for ED20: iv, read-out: ED20, dose reducing by 20% the mean arterious pressure (graphically calculated); for Potency ratio, In vivo: Table III
# Experimental: Male albino rats were used (D strain, Charles River) anesthetized with a starting dose of sodium pentobarbital of 60 mg/kg i.p. and thermoregulated at 37° C. Mean arterious pressure was monitored at right carotidis arteria, while the compounds were administered as a bolus into the jugular vein, at constant volumes of 0.3 and 1 ml/kg.
# The results, expressed as ED20, dose causing a 20% reduction in the mean arterious pressure (graphically calculated) are expressed in table III, relating to compounds substituted at the 2- and 5-positions.
# [4] = Arterious pressure in the anesthetized rabbit, in vein administration; format: in vivo
# Text: The above results are confirmed also in another animal species.
# [5] = Table II, 5-acyl derivatives of isosorbide 2-nitrate
# [6] = Table I, in comparison with isosorbide 5-nitrate
# [7] = Table I, 2-acyl derivatives of isosorbide 5-nitrate
# [8] = Table I, 2-acyl derivatives of isosorbide 5-nitrate, K+ 100 mM
# [9] = Table II, 5-acyl derivatives of isosorbide 2-nitrate, K+ 100 mM
# [10] = Table II, in comparison with isosorbide 2-nitrate
SMILES,"logP [1, 5]","Potency ratios (confidence limits) [2, 6]","Potency ratio, In vitro ([2]; relative to IS-5-N)","logP [1, 7]","Potency ratio, In vivo ([3]; relative to IS-5-N)",ED20 ([3]; anesthetized rat),"Potency ratios (confidence limits) [2, 10]","Potency ratio, In vitro ([2]; relative to IS-2-N)","Potency ratio, In vivo ([3]; relative to IS-2-N)",further results
"CCCCCCCCCCCCCCCC(=O)O[C@@H]1CO[C@H]2[C@@H]1OC[C@@H]2O[N+](=O)[O-] [VIII, 1,4:3,6-dianhydrosorbitol 2-nitrate 5-palmitate]",1.51,,,,,,,,,
"O=C(O)CCC(=O)O[C@H]1CO[C@H]2[C@@H]1OC[C@H]2O[N+](=O)[O-] [XIV, 1,4:3,6-dianhydrosorbitol 5-nitrate 2-(3-carboxy)propionate]",,0.16 (0.10-0.25),0.2,0.294,≈ 0.5,,,,,IC50 [2]: 2100 µM; ED20 ([3]; Rattus norvegicus): 300 µmol/kg
"O=C(CCC(=O)O[C@H]1CO[C@H]2[C@@H]1OC[C@H]2O[N+](=O)[O-])O[C@H]1CO[C@H]2[C@@H]1OC[C@H]2O[N+](=O)[O-] [XII, bis-(1,4:3,6-dianhydrosorbitol 5-nitrate-2-il)succinate]",,~20,7,1.81,≈ 21,,,,,ED20 ([3]; Rattus norvegicus): 7 µmol/kg
"COc1cc(C(=O)O[C@H]2CO[C@H]3[C@@H]2OC[C@H]3O[N+](=O)[O-])cc(OC)c1OC [II, 1,4:3,6-dianhydrosorbitol 2-(3,4,5-trimethoxy)-benzoate 5-nitrate]",,113.48 (72.30-172.85),113,2.09,≈ 79,1.9 µmol/kg,,,,"IC50 [2, 8]: 2.72 µM; times more active than the starting mononitrate [2]: about 110 times; reduction in arterious pressure [4]: dose-depending reduction in arterious pressure; strength of arterious pressure reduction higher than that of IS-2N ([4]; vs IS-2N): about 10 times; strength of arterious pressure reduction higher than that of IS-5N ([4]; vs IS-5N): ~100 times; times more lipophilic than the starting mononitrate [1]: about 140 times; hypotensive activity in words ([3]; rat): remarkable hypotensive activity in both ""in vitro"" and ""in vivo"" tests"
"COc1cc(C(=O)O[C@@H]2CO[C@H]3[C@@H]2OC[C@@H]3O[N+](=O)[O-])cc(OC)c1OC [X, 1,4:3,6-dianhydrosorbitol 5-(3,4,5-trimethoxy)-benzoate 2-nitrate]",2.08,,,,,0.4 µmol/kg,1.58 (1.13-2.19),1,≈ 30,"IC50 [2, 9]: 13.8 µM; times more active than the starting mononitrate [2]: 1.58 times; times more lipophilic than the starting mononitrate [1]: 200 times"
"CCOC(=O)CCCCC(=O)O[C@H]1CO[C@H]2[C@@H]1OC[C@H]2O[N+](=O)[O-] [XI, 1,4:3,6-dianhydrosorbitol 5-nitrate 2-(5-ethoxycarbonyl)pentanoate]",,6.91 (4.78-9.88),7,1.48,≈ 21,7 µmol/kg,,,,"IC50 [2, 8]: 46.4 µM"
"CCC(=O)O[C@@H]1CO[C@H]2[C@@H]1OC[C@@H]2O[N+](=O)[O-] [IS-5P-2N, isosorbide 2-nitrate 5-propionate, reference compound]",0.947,,,,,,15.59 (10.74-22.44),15.6,,"IC50 [2, 9]: 1.54 µM"
"O=[N+]([O-])O[C@H]1CO[C@H]2[C@@H]1OC[C@H]2O [IS-2-N, 1,4:3,6-dianhydrosorbitol 2-nitrate, reference compound]",-0.231,,,,,,1.0,1,≈ 1,IC50 [2]: 23.9 µM; ED20 ([3]; Rattus norvegicus): 12 µmol/kg
"O=[N+]([O-])O[C@@H]1CO[C@H]2[C@@H]1OC[C@@H]2O [IS-5-N, 1,4:3,6-dianhydrosorbitol 5-nitrate, reference compound]",,1.0,1,-0.0501,1,,,,,IC50 [2]: 253 µM; ED20 ([3]; Rattus norvegicus): 150 µmol/kg
"COc1cc(C=CC(=O)O[C@@H]2CO[C@H]3[C@@H]2OC[C@@H]3O[N+](=O)[O-])cc(OC)c1OC [IX, 1,4:3,6-dianhydrosorbitol 5-(3,4,5-trimethoxy)cinnamate 2-nitrate]",2.5,,,,,0.6 µmol/kg,~3,6,≈ 20,
"CC(=O)O[C@H]1CO[C@H]2[C@@H]1OC[C@H]2O[N+](=O)[O-] [IS-2A-5N, isosorbide 2-acetate 5-nitrate, reference compound]",,8.21 (5.11-13.13),8,0.579,≈ 60,2.5 µmol/kg,,,,"IC50 [2, 8]: 33.9 µM"
"COc1cc(C=CC(=O)O[C@H]2CO[C@H]3[C@@H]2OC[C@H]3O[N+](=O)[O-])cc(OC)c1OC [VI, 1,4:3,6-dianhydrosorbitol 2-(3,4,5-trimethoxy)cinnamate 5-nitrate]",,7.08 (4.21-11.67),7,2.44,≈ 94,1.6 µmol/kg,,,,
"COc1ccc(C=CC(=O)O[C@H]2CO[C@H]3[C@@H]2OC[C@H]3O[N+](=O)[O-])cc1OC [IV, 1,4:3,6-dianhydrosorbitol 2-(3,4-dimethoxy)cinnamate 5-nitrate]",,~3,3,2.96,≈ 83,1.8 µmol/kg,,,,
"CCOC(=O)CCCCC(=O)O[C@@H]1CO[C@H]2[C@@H]1OC[C@@H]2O[N+](=O)[O-] [XIII, 1,4:3,6-dianhydrosorbitol 2-nitrate 5-(5-ethoxycarbonyl)-pentanoate]",1.58,,,,,2.5 µmol/kg,6.65 (4.81-9.10),6.6,≈ 4.8,
"CCC(=O)O[C@H]1CO[C@H]2[C@@H]1OC[C@H]2O[N+](=O)[O-] [IS-2P-5N, isosorbide 5-nitrate 2-propionate, reference compound]",,5.19 (3.53-7.52),5,1.15,≈ 65,2.3 µmol/kg,,,,"IC50 [2, 8]: 56.8 µM"
"CC(=O)O[C@@H]1CO[C@H]2[C@@H]1OC[C@@H]2O[N+](=O)[O-] [IS-5A-2N, isosorbide 5-acetate 2-nitrate, reference compound]",0.418,,,,,2.2 µmol/kg,6.55 (4.60-9.17),6.5,≈ 5.4,"IC50 [2, 9]: 3.97 µM"
"CCCCCCCCCCCCCCCC(=O)O[C@H]1CO[C@H]2[C@@H]1OC[C@H]2O[N+](=O)[O-] [III, 1,4:3,6-dianhydrosorbitol 5-nitrate 2-palmitate]",,,,1.35,,,,,,"IC50 [2, 8]: > 10 µM"
"COc1ccc(C=CC(=O)O[C@@H]2CO[C@H]3[C@@H]2OC[C@@H]3O[N+](=O)[O-])cc1OC [VII, 1,4:3,6-dianhydrosorbitol 5-(3,4-dimethoxy)cinnamate 2-nitrate]",2.2,,,,,0.3 µmol/kg,~1,1,≈ 40,
"O=C(C=Cc1ccccc1)O[C@H]1CO[C@H]2[C@@H]1OC[C@H]2O[N+](=O)[O-] [V, 1,4:3,6-dianhydrosorbitol 2-cinnamate 5-nitrate]",,~1,1,,≈ 79,1.9 µmol/kg,,,,Partition coeff. (octanol/H2O) [1]: very high
